In patent US7358268B2, “Imidazole derivatives as factor Xa inhibitors” (Sanofi-Aventis Deutschland GmbH, priority 2002, dated 2008):

Each compound was assayed against T1, human factor Xa (Homo sapiens, UniProt P00742) (assay: Factor Xa assay (chromogenic, purified enzyme)). Settings: inhibition constant for factor Xa; chromogenic substrate S-2765 140 μM, enzyme 0.5 nM, 25° C., pH 7.8; Ki calculated from IC50 (Ki=IC50/{1+(substrate concentration/Km)}); read-out: Ki(FXa).
T1 construct: 25 μl human factor Xa (Enzyme Research Laboratories, Inc; South Bend, Ind.) in TBS-PEG; purchased Enzyme Research Laboratories, Inc; South Bend, Ind
Assay type: biochemical
Description: The ability of the compounds of the formula I to inhibit factor Xa or factor VIIa or other enzymes like thrombin, plasmin, or trypsin can be assessed by determining the concentration of the compound of the formula I that inhibits enzyme activity by 50%, i. e. the IC50 value, which was related to the inhibition constant Ki. Purified enzymes were used in chromogenic assays. The concentration of inhibitor that causes a 50% decrease in the rate of substrate hydrolysis was determined by linear regression after plotting the relative rates of hydrolysis (compared to the uninhibited control) versus the log of the concentration of the compound of formula I. For calculating the inhibition constant Ki, the IC50 value was corrected for competition with substrate using the formula Ki=IC50/{1+(substrate concentration/Km)} wherein Km is the Michaelis-Menten constant (Chen and Prusoff, Biochem. Pharmacol. 22 (1973), 3099-3108; I. H. Segal, Enzyme Kinetics, 1975, John Wiley & Sons, New York, 100-125; which were incorporated herein by reference). a) Factor Xa Assay
In the assay for determining the inhibition of factor Xa activity TBS-PEG buffer (50 mM Tris-HCl, pH 7.8, 200 mM NaCl, 0.05% (w/v) PEG-8000, 0.02% (w/v) NaN3) was used. The IC50 was determined by combining in appropriate wells of a Costar half-area microtiter plate 25 μl human factor Xa (Enzyme Research Laboratories, Inc.; South Bend, Ind.) in TBS-PEG; 40 μl 10% (v/v) DMSO in TBS-PEG (uninhibited control) or various concentrations of the compound to be tested diluted in 10% (v/v) DMSO in TBS-PEG; and substrate S-2765 (N(α)-benzyloxycarbonyl-D-Arg-Gly-L-Arg-p-nitroanilide; Kabi Pharmacia, Inc.; Franklin, Ohio) in TBS-PEG.
The assay was performed by pre-incubating the compound of formula I plus enzyme for 10 min. Then the assay was initiated by adding substrate to obtain a final volume of 100 μl. The initial velocity of chromogenic substrate hydrolysis was measured by the change in absorbance at 405 nm using a Bio-tek Instruments kinetic plate reader (Ceres UV900HDi) at 25° C. during the linear portion of the time course (usually 1.5 min after addition of substrate). The enzyme concentration was 0.5 nM and substrate concentration was 140 μM.

T1 sequence (P00742 235-488 limits assumed): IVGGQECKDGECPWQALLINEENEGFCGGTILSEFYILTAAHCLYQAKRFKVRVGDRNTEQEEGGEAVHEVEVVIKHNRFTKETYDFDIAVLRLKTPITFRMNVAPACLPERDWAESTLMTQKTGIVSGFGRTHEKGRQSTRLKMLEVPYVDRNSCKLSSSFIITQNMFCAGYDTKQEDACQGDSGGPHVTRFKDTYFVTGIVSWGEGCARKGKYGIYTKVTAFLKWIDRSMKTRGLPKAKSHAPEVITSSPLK
T1 sequence (P00742 41-179 partner limits assumed): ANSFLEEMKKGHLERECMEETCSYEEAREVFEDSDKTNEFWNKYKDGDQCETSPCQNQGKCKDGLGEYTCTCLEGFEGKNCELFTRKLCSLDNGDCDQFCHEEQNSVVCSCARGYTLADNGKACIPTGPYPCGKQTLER

| Structure (SMILES) | Ki [nM] |
| --- | --- |
| CC(C)N1CCC(NC(=O)c2cncn2Cc2cc(-c3ccc(Cl)s3)on2)CC1 [Example 1, 3-[5-(5-Chloro-thiophen-2-yl)-isoxazol-3-ylmethyl]-3H-imidazole-4-carboxylic acid (1-isopropyl-piperidin-4-yl)-amide] | 65 |
| CC(C)N1CCC(NC(=O)c2c(Cl)nc(-c3ccccc3)n2Cc2cc(-c3ccc(Cl)s3)on2)CC1 [Example 3, 5-Chloro-3-[5-(5-chloro-thiophen-2-yl)-isoxazol-3-ylmethyl]-2-phenyl-3H-imidazole-4-carboxylic acid (1-isopropyl-piperidin-4-yl)-amide] | 7 |
| CCc1nc(C)c(C(=O)NC2CCN(C(C)C)CC2)n1Cc1cc(-c2ccc(Cl)s2)on1 [Example 5, 3-[5-(5-Chloro-thiophen-2-yl)-isoxazol-3-ylmethyl]-2-ethyl-5-methyl-3H-imidazole-4-carboxylic acid (1-isopropyl-piperidin-4-yl)-amide] | 27 |
| CCc1nc(C(=O)NC2CCN(C(C)C)CC2)c(C)n1Cc1cc(-c2ccc(Cl)s2)on1 [Example 6, 1-[5-(5-Chloro-thiophen-2-yl)-isoxazol-3-ylmethyl]-2-ethyl-5-methyl-1H-imidazole-4-carboxylic acid (1-isopropyl-piperidin-4-yl)-amide] | 530 |
| Cc1nc(I)n(Cc2cc(-c3ccc(Cl)s3)on2)c1C(=O)NC1CCN(C(C)C)CC1 [Example 7, 3-[5-(5-Chloro-thiophen-2-yl)-isoxazol-3-ylmethyl]-2-iodo-5-methyl-3H-imidazole-4-carboxylic acid (1-isopropyl-piperidin-4-yl)-amide] | 1 |
| COCc1ncc(C(=O)NC2CCN(C(C)C)CC2)n1Cc1cc(-c2ccc(Cl)s2)on1 [Example 9, 3-[5-(5-Chloro-thiophen-2-yl)-isoxazol-3-ylmethyl]-2-methoxymethyl-3H-imidazole-4-carboxylic acid (1-isopropyl-piperidin-4-yl)-amide] | 86 |
| CC(C)N1CCC(NC(=O)c2cnc(C3CC3)n2Cc2cc(-c3ccc(Cl)s3)on2)CC1 [Example 11, 3-[5-(5-Chloro-thiophen-2-yl)-isoxazol-3-ylmethyl]-2-cyclopropyl-3H-imidazole-4-carboxylic acid (1-isopropyl-piperidin-4-yl)-amide] | 4 |
| CC(C)N1CCC(NC(=O)c2cnc(-c3c(F)cccc3F)n2Cc2cc(-c3ccc(Cl)s3)on2)CC1 [Example 12, 3-[5-(5-Chloro-thiophen-2-yl)-isoxazol-3-ylmethyl]-2-(2,6-difluoro-phenyl)-3H-imidazole-4-carboxylic acid (1-isopropyl-piperidin-4-yl)-amide] | 18 |
| COCCc1ncc(C(=O)NC2CCN(C(C)C)CC2)n1Cc1cc(-c2ccc(Cl)s2)on1 [Example 14, 3-[5-(5-Chloro-thiophen-2-yl)-isoxazol-3-ylmethyl]-2-(2-methoxy-ethyl)-3H-imidazole-4-carboxylic acid (1-isopropyl-piperidin-4-yl)-amide] | 401 |
| CC(C)N1CCC(NC(=O)c2cnc(-c3c(Cl)cccc3Cl)n2Cc2cc(-c3ccc(Cl)s3)on2)CC1 [Example 15, 3-[5-(5-Chloro-thiophen-2-yl)-isoxazol-3-ylmethyl]-2-(2,6-dichloro-phenyl)-3H-imidazole-4-carboxylic acid (1-isopropyl-piperidin-4-yl)-amide] | 56 |
| CC(C)c1ncc(C(=O)NC2CCN(C(C)C)CC2)n1Cc1cc(-c2ccc(Cl)s2)on1 [Example 16, 3-[5-(5-Chloro-thiophen-2-yl)-isoxazol-3-ylmethyl]-2-isopropyl-3H-imidazole-4-carboxylic acid (1-isopropyl-piperidin-4-yl)-amide] | 254 |
| CC(C)N1CCC(NC(=O)c2cnc(-c3ccccn3)n2Cc2cc(-c3ccc(Cl)s3)on2)CC1 [Example 17, 3-[5-(5-Chloro-thiophen-2-yl)-isoxazol-3-ylmethyl]-2-pyridin-2-yl-3H-imidazole-4-carboxylic acid (1-isopropyl-piperidin-4-yl)-amide] | 112 |
| Cc1nc(-c2ccccc2)n(Cc2cc(-c3ccc(Cl)s3)on2)c1C(=O)NC1CCN(C(C)C)CC1 [Example 18, 3-[5-(5-Chloro-thiophen-2-yl)-isoxazol-3-ylmethyl]-5-methyl-2-phenyl-3H-imidazole-4-carboxylic acid (1-isopropyl-piperidin-4-yl)-amide] | 7 |
| CC(C)N1CCC(NC(=O)c2cnc(-c3cccnc3)n2Cc2cc(-c3ccc(Cl)s3)on2)CC1 [Example 20, 3-[5-(5-Chloro-thiophen-2-yl)-isoxazol-3-ylmethyl]-2-pyridin-3-yl-3H-imidazole-4-carboxylic acid (1-isopropyl-piperidin-4-yl)-amide] | 358 |
| Cc1nc(-c2ncc(C(=O)NC3CCN(C(C)C)CC3)n2Cc2cc(-c3ccc(Cl)s3)on2)cs1 [Example 21, 3-[5-(5-Chloro-thiophen-2-yl)-isoxazol-3-ylmethyl]-2-(2-methyl-thiazol-4-yl)-3H-imidazole-4-carboxylic acid (1-isopropyl-piperidin-4-yl)-amide] | 243 |
| CCS(=O)(=O)c1ncc(C(=O)NC2CCN(C(C)C)CC2)n1Cc1cc(-c2ccc(Cl)s2)on1 [Example 23, 3-[5-(5-Chloro-thiophen-2-yl)-isoxazol-3-ylmethyl]-2-ethanesulfonyl-3H-imidazole-4-carboxylic acid (1-isopropyl-piperidin-4-yl)-amide] | 6 |
| Cc1nc(C(N)=O)n(Cc2cc(-c3ccc(Cl)s3)on2)c1C(=O)NC1CCN(C(C)C)CC1 [Example 24, 3-[5-(5-Chloro-thiophen-2-yl)-isoxazol-3-ylmethyl]-5-methyl-3H-imidazole-2,4-dicarboxylic acid 2-amide 4-[(1-isopropyl-piperidin-4-yl)-amide]] | 22 |
| Cc1nc(Br)n(Cc2cc(-c3ccc(Cl)s3)on2)c1C(=O)NC1CCN(C(C)C)CC1 [Example 26, 2-Bromo-3-[5-(5-chloro-thiophen-2-yl)-isoxazol-3-ylmethyl]-5-methyl-3H-imidazole-4-carboxylic acid (1-isopropyl-piperidin-4-yl)-amide] | 3 |
| CC(C)N1CCC(NC(=O)c2cncn2CC(=O)Nc2ccc(Cl)cn2)CC1 [Example 29, 3-[(5-Chloro-pyridin-2-ylcarbamoyl)-methyl]-3H-imidazole-4-carboxylic acid (1-isopropyl-piperidin-4-yl)-amide] | 140 |
| COCc1ncc(C(=O)NC2CCN(C(C)C)CC2)n1CC(=O)Nc1ccc(Cl)cc1 [Example 30, 3-[(4-Chloro-phenylcarbamoyl)-methyl]-2-methoxymethyl-3H-imidazole-4-carboxylic acid (1-isopropyl-piperidin-4-yl)-amide] | 35 |
| CC(C)N1CCC(NC(=O)c2c(Cl)nc(-c3ccccc3)n2CC(=O)Nc2ccc(Cl)cn2)CC1 [Example 33, 5-Chloro-3-[(5-chloro-pyridin-2-ylcarbamoyl)-methyl]-2-phenyl-3H-imidazole-4-carboxylic acid (1-isopropyl-piperidin-4-yl)-amide] | 103 |
| CCOC(=O)c1ncc(C(=O)NC2CCN(C(C)C)CC2)n1Cc1cc(-c2ccc(Cl)s2)on1 [Example 37, 1-[5-(5-Chloro-thiophen-2-yl)-isoxazol-3-ylmethyl]-5-(1-isopropyl-piperidin-4-ylcarbamoyl)-1H-imidazole-2-carboxylic acid ethyl ester] | 8 |
| CC(C)N1CCC(NC(=O)c2nc(C(=O)OC(C)(C)C)cn2Cc2cc(-c3ccc(Cl)s3)on2)CC1 [Example 38, 1-[5-(5-Chloro-thiophen-2-yl)-isoxazol-3-ylmethyl]-2-(1-isopropyl-piperidin-4-ylcarbamoyl)-1H-imidazole-4-carboxylic acid tert-butyl ester] | 174 |
| CC(C)N1CCC(NC(=O)c2nc(C(=O)O)cn2Cc2cc(-c3ccc(Cl)s3)on2)CC1 [Example 39, 1-[5-(5-Chloro-thiophen-2-yl)-isoxazol-3-ylmethyl]-2-(1-isopropyl-piperidin-4-ylcarbamoyl)-1H-imidazole-4-carboxylic acid] | 117 |
| COC(=O)c1cn(Cc2cc(-c3ccc(Cl)s3)on2)c(C(=O)NC2CCN(C(C)C)CC2)n1 [Example 40, 1-[5-(5-Chloro-thiophen-2-yl)-isoxazol-3-ylmethyl]-2-(1-isopropyl-piperidin-4-ylcarbamoyl)-1H-imidazole-4-carboxylic acid methyl ester] | 20 |
